Target: T1, human URAT1 (Homo sapiens, UniProt Q96S37)
T1 construct: Full-length cDNA of human URAT1 (hURAT1)
T1 sequence (Q96S37 1-553): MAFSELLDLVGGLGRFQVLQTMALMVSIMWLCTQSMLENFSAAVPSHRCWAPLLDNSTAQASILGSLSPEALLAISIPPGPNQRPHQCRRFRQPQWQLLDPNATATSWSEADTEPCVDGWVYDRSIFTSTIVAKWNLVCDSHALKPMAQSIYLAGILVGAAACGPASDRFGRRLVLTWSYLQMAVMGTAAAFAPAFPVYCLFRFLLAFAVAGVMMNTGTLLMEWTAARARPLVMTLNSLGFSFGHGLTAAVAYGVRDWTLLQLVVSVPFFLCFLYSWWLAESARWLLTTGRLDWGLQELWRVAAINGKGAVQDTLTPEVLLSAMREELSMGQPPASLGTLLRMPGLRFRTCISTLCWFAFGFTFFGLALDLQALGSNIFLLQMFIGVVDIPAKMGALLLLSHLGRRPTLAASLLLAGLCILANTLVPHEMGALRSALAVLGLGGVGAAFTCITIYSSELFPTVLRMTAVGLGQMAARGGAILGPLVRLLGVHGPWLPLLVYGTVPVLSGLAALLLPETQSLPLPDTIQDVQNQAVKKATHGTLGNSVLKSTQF
Assay: Test for inhibition of uric acid transport using human URAT1-expressing cells;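 note: three stars up to 0.2 µM two stars 0.2-2 µM one star 2-20 µM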
Type: cell-based
Conditions: HEK 293 cells expressing human URAT1, 14C-labeled uric acid 25 μM, uptake 37° C. for 5 min; for IC50: read-out: Inhibitory Activity (IC50 of uric acid transport inhibition)
Protocol: (1) Preparation of the Test Compound
The test compound was dissolved in DMSO (produced by Sigma) to a concentration of 20 mM and was subsequently used by diluting to desired concentrations.
(2) Test for Inhibition of Uric Acid Transport Using Human URAT1-Expressing Cells;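 note: three stars up to 0.2 µM two stars 0.2-2 µM one star 2-20 µM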
Full-length cDNA of human URAT1 (hURAT1) (produced by OriGene Technologies, Inc., NCBI Reference Sequence: NM 144585) was subcloned into an expression vector, pCMV6-Kan/Neo (produced by OriGene Technologies, Inc.), and hURAT1 gene was transfected into human embryonic kidney-derived cells (HEK 293 cells) by liposome method using Lipofectamine 2000 (produced by Invitrogen Corporation), whereupon HEK 293 cells expressing human URAT1 gene were screened by its Geneticin resistance. By a method similar to the following method, functional expression of human URAT1 gene was confirmed by using transport of ^14C-labeled uric acid into the cells as an index.
The HEK 293 cells expressing human URAT1 were seeded in a 24-well cell culture dish to a density of 3×10^5 cells/mL/well and were cultured in Dulbecco's modified Eagle's medium (D-MEM medium) containing 10% fetal bovine serum at 37° C. for 2 days. Thereafter, the following test for inhibition of uric acid transport was performed.
After the medium was removed by aspiration from each well, the medium was replaced with a solution obtained by substituting NaCl in Hank's Balanced Salt Solution (HBSS) with Na gluconate (hereinafter, HBSS/Na-gluconate) and the cells were preincubated at 37° C. for about 10 minutes. HBSS/Na-gluconate was removed by aspiration and a ^14C-uric acid solution that was warmed at 37° C. in advance containing various concentrations of the Example compound described in (1) and a radioactive ligand (^14C-labeled uric acid; final concentration 25 μM) was added and an uptake reaction was carried out by incubating at 37° C. for 5 min. After the incubation, ^14C-labeled uric acid solution was removed by aspiration and the cells were washed three times with ice-cold HBSS. The HEK 293 cells expressing human URAT1 were lysed in 0.2 mol/L aqueous NaOH (hereafter, the cell sample) and the cell samples were collected. The cell sample and a liquid scintillation liquid, ULTIMA GOLD (produced by PerkinElmer, Inc.) were mixed and the radioactivity was measured by a liquid scintillation counter (Beckman Coulter, Inc.).
The uric acid transport rate of the Example compound at each concentration (% of control uptake) was calculated relative to the radioactivity (radioactivity in human URAT1 expressing HEK 293 cells without addition of the Example compound (DMSO addition)) showing URAT1-specific uric acid transport as 100%, and the concentration (IC50) of the Example compound at which the uric acid transport rate is inhibited by 50% was determined. In addition, the symbols (*, **, and ***) in the table represent the following inhibitory activity values: • IC50≦_ 0.2 μM: *** • 0.2 μM<IC50≦2 μM: ** • 2 μM<IC50≦20 μM: *

Inhibitory Activity (IC50 of uric acid transport inhibition)	IC50 [µM]	Compound
* *	–	CC(C)c1nc(-c2cccnc2)n(Cc2cccc3ccsc23)c1C(=O)O [Compound A83, 1-(benzo[b]thiophen-7-ylmethyl)-4-isopropyl-2-(pyridin-3-yl)-1H-imidazole-5-carboxylic acid]
* *	–	O=C(O)c1c(C(F)(F)F)nc(-c2cccnc2)n1Cc1cccc2ccsc12 [Compound A84, 1-(benzo[b]thiophen-7-ylmethyl)-2-(pyridin-3-yl)-4-(trifluoromethyl)-1H-imidazole-5-carboxylic acid]
* * *	–	Cc1nc(-c2cccnc2)n(Cc2cc(F)cc3ccsc23)c1C(=O)O [Compound A85, 1-((5-fluorobenzo[b]thiophen-7-yl)methyl)-4-methyl-2-(pyridin-3-yl)-1H-imidazole-5-carboxylic acid]
* * *	–	O=C(O)c1c(C2CC2)nc(-c2cccnc2)n1Cc1cc(F)cc2ccsc12 [Compound A86, 4-cyclopropyl-1-((5-fluorobenzo[b]thiophen-7-yl)methyl)-2-(pyridin-3-yl)-1H-imidazole-5-carboxylic acid]
* * *	–	O=C(O)c1c(Cl)nc(-c2cccnc2)n1Cc1cc(Cl)ccc1Cl [Compound A88, 4-chloro-1-(2,5-dichlorobenzyl)-2-(pyridin-3-yl)-1H-imidazole-5-carboxylic acid]
* * *	–	O=C(O)c1c(Br)nc(-c2cccnc2)n1Cc1cc(Cl)ccc1Cl [Compound A89, 4-bromo-1-(2,5-dichlorobenzyl)-2-(pyridin-3-yl)-1H-imidazole-5-carboxylic acid]
* * *	–	O=C(O)c1c(I)nc(-c2cccnc2)n1Cc1cc(Cl)ccc1Cl [Compound A90, 1-(2,5-dichlorobenzyl)-4-iodo-2-(pyridin-3-yl)-1H-imidazole-5-carboxylic acid]
* * *	–	O=C(O)c1c(-c2ccccc2)nc(-c2cccnc2)n1Cc1cc(Cl)ccc1Cl [Compound A91, 1-(2,5-dichlorobenzyl)-4-phenyl-2-(pyridin-3-yl)-1H-imidazole-5-carboxylic acid]
* * *	–	O=C(O)c1c(-c2cccc(F)c2)nc(-c2cccnc2)n1Cc1cc(Cl)ccc1Cl [Compound A92, 1-(2,5-dichlorobenzyl)-4-(3-fluorophenyl)-2-(pyridin-3-yl)-1H-imidazole-5-carboxylic acid]
* * *	–	O=C(O)c1c(-c2ccc(F)cc2)nc(-c2cccnc2)n1Cc1cc(Cl)ccc1Cl [Compound A93, 1-(2,5-dichlorobenzyl)-4-(4-fluorophenyl)-2-(pyridin-3-yl)-1H-imidazole-5-carboxylic acid]
* *	–	O=C(O)c1c(-c2cccnc2)nc(-c2cccnc2)n1Cc1cc(Cl)ccc1Cl [Compound A94, 1-(2,5-dichlorobenzyl)-2,4-di(pyridin-3-yl)-1H-imidazole-5-carboxylic acid]
–	2 to 20	O=C(O)c1c(-c2ccncc2)nc(-c2cccnc2)n1Cc1cc(Cl)ccc1Cl [Compound A95]
* * *	–	COc1nc(-c2cccnc2)n(Cc2cc(Cl)ccc2Cl)c1C(=O)O [Compound A96, 1-(2,5-dichlorobenzyl)-4-methoxy-2-(pyridin-3-yl)-1H-imidazole-5-carboxylic acid]
–	2 to 20	O=C(O)c1c(OCCO)nc(-c2cccnc2)n1Cc1cc(Cl)ccc1Cl [Compound A97]
* * *	–	O=C(O)c1c(OCC(F)(F)F)nc(-c2cccnc2)n1Cc1cc(Cl)ccc1Cl [Compound A98, 1-(2,5-dichlorobenzyl)-2-(pyridin-3-yl)-4-(2,2,2-trifluoroethoxy)-1H-imidazole-5-carboxylic acid]

Compound	Inhibitory Activity (IC50 of uric acid transport inhibition)	IC50 [µM]
Cc1nc(-c2cccnc2)n(C(C)c2cc(Cl)ccc2Cl)c1C(=O)O (stereo not shown) [Compound A87]	–	2 to 20

Source: US9637469B2, “Pyridine derivative” (Teijin Pharma Limited, priority 2012, dated 2017)
